Structures are written as SMILES.

This data set can be described thus: LC-MS/MS analysis of 2HF in serum after topical application. The settings on record: topical 12 mg 2HF/0.1 mL PLO gel each day for 8 weeks, blood within 2 h after final dosage. The data set is classed as in vivo, C57BL/6 mice. How it is done:
C57BL/6 mice were administered either 0.1 mL PLO gel or 12 mg 2HF in 0.1 mL PLO gel topically each day for 8 weeks. On the last day, the blood was collected within 2 h after final dosage, and subjected to LC-MS/MS analyses according to established protocol. Briefly, serum from control and 2HF-treated mice was extracted twice with 500 µL ethyl acetate and the organic layers were collected and evaporated to dryness in a speed-vac. The residue was reconstituted in 40 µL methanol containing 0.1% formic acid (FA) for analysis. An LC-MS method was developed for the quantitative analysis of 2HF using an Agilent 6490 triple quadrupole coupled with an Agilent 1290 UHPLC system. In short, the binary pump delivered buffers A (0.1% FA in water) and buffer B (0.1% FA in acetonitrile) over 10 min with the following gradient: From 10% B to 20% B in 1 min, then ramp to 90% B at 6 min, 10% B at 8 min, 10% B at 8.5 min, column equilibration post analysis was 2 min. An Agilent Zorbax, 0.5 × 150 mm, 5 µm particle size was used for the separation at a flow rate of 50 µL/min.

Take `O=C1CC(c2ccccc2O)Oc2ccccc21` (stereo not shown) [2HF, 2′-hydroxyflavanone]: the 2HF in serum turned out to be 4.3 ± 0.4 µM.

For the origin of these results see publication PMC6826616, “Topical 2′-Hydroxyflavanone for Cutaneous Melanoma” (Cancers, 2019).
